Measured values from patent US12384772B2, “Inhibitors” (VIVORYON THERAPEUTICS N.V., priority 2017, dated 2025).
Where two headings read alike, the source gives them in different places.

Molecular target: Glutaminyl cyclase (QC) (Homo sapiens (Human), UniProt Q16769)
Test: Glutaminyl cyclase assay, determination of IC50 values and calculation of Ki values (H-Gln-AMC substrate, pGAP auxiliary enzyme; pH 8.0 or pH 6.0)
Type: biochemical
Experimental: 10 mM compound stock solutions were prepared in DMSO. For IC50 determination compound stocks were serially diluted (1:3) in DMSO.
All measurements were performed with an EnSpire Perkin Elmer multimode reader using glutaminyl-7-amino-4-methylcoumarin (H-Gin-AMC) as substrate and recombinant pyroglutamyl aminopeptidase (pGAP) as auxiliary enzyme. Reactions were carried out at ambient temperature in black 96-well half area microplates. Each sample consisted of 1 μl test compound solution or solvent (DMSO) and 49 μl QC appropriately diluted in assay buffer (50 mM Tris/HCl, pH 8.0 or 50 mM MES buffer, pH=6.0). After a 10 min preincubation at ambient temperature the enzyme reaction was started by adding 50 μl of Gln-AMC-substrate/pGAP mixture in assay buffer. Final substrate concentrations were 50 and 200 μM for measurement at pH 8.0 or 6.0, respectively. Release of flourogenic AMC were recorded at excitation/emission wavelengths of 380/460 nm. Initial velocity of the enzyme reaction was calculated by linear regression of the first 10 data points using the Enspire Manager software. Final evaluation and calculation of IC50s were performed using GraphPad Prism software.
Ki-values were calculated according to the following formula: Ki=IC50/(1+[S]/Km), where: […]

[1] = pH 6, read-out: hQC Ki [μM] pH6
[2] = pH 8, read-out: hQC Ki [μM] pH8

Glutaminyl cyclase (QC), sequence (Q16769 29-361): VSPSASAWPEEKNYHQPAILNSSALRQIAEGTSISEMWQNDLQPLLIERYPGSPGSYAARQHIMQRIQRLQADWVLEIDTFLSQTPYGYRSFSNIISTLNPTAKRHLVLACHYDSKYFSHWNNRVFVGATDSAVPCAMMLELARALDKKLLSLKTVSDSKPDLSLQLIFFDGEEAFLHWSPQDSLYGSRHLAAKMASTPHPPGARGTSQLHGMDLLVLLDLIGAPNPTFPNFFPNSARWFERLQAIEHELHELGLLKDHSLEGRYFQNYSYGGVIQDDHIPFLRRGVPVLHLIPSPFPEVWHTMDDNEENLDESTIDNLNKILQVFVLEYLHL

| Ki [1] | Ki [2] | Structure (SMILES) |
| --- | --- | --- |
| 4.17 µM | 4.7 µM | COc1ccc(-c2cccnc2Nc2ccc(-c3nnc(N)s3)cc2)cc1 [C5, N-[4-(5-amino-1,3,4-thiadiazol-2-yl)phenyl]-3-(4-methoxyphenyl)pyridin-2-amine] |
| 1.66 µM | 6.89 µM | Nc1nnc(-c2ccc(Nc3nccnc3-c3ccc(F)cc3)cc2)s1 [C9, N-[4-(5-amino-1,3,4-thiadiazol-2-yl)phenyl]-3-(4-fluorophenyl)pyrazin-2-amine] |
| 2.15 µM | 2.36 µM | CCCOc1ccc(-c2ccccc2Nc2ccc(-c3nnc(N)s3)cc2)cc1 [C11, 5-(4-([2-(4-propoxyphenyl)phenyl]amino)phenyl)-1,3,4-thiadiazol-2-amine] |
| 2.6 µM | 1100 µM | Nc1nnc(CCCNc2ccccc2-c2ccc(F)cc2)s1 [Comp 93, 5-[3-({4′-fluoro-[1,1′-biphenyl]-2-yl}amino)propyl]-1,3,4-thiadiazol-2-amine] |
| 2.97 µM | 11.5 µM | Nc1nnc(SCCNc2ccccc2-c2ccc(F)cc2)s1 [Comp 94, 5-{[2-({4′-fluoro-[1,1′-biphenyl]-2-yl}amino)ethyl]sulfanyl}-1,3,4-thiadiazol-2-amine] |
| 1.97 µM | 2.86 µM | Cn1cnnc1CCCNc1ccccc1-c1ccc(F)cc1 [Comp 328, 4′-fluoro-N-[3-(4-methyl-4H-1,2,4-triazol-3-yl)propyl]-[1,1′-biphenyl]-2-amine] |
| 2.69 µM | 4.27 µM | Nc1nnc(-c2ccc(Nc3ncccc3-c3ccc(F)cc3)cc2)s1 [Comp 521, N-[4-(5-amino-1,3,4-thiadiazol-2-yl)phenyl]-3-(4-fluorophenyl)pyridin-2-amine] |
| 1.44 µM | 1.74 µM | Cn1cnnc1-c1ccc(Nc2ccccc2-c2ccc(F)cc2)cc1 [Comp 826, 4′-fluoro-N-[4-(4-methyl-4H-1,2,4-triazol-3-yl)phenyl]-[1,1‘-biphenyl]-2-amine] |
| 2.69 µM | 5.05 µM | Cn1cnnc1-c1ccc(Nc2cccnc2-c2ccc(F)cc2)cc1 [Comp 852, 2-(4-fluorophenyl)-N-[4-(4-methyl-4H-1,2,4-triazol-3-yl)phenyl]pyridin-3-amine] |
| 5.91 µM | 5.29 µM | Fc1ccc(-c2ccccc2NCc2ccc3[nH]cnc3c2)cc1 [Comp 1226, N-[(1H-1,3-benzodiazol-5-yl)methyl]-4′-fluoro-[1,1′-biphenyl]-2-amine] |
| 58.8 µM | 12.3 µM | Fc1ccc(-c2cccnc2NCc2ccc3[nH]cnc3c2)cc1 [Comp 1234, N-(1H-1,3-benzodiazol-5-ylmethyl)-3-(4-fluorophenyl)pyridin-2-amine] |
| 145 µM | 22 µM | Fc1ccc(-c2ncccc2NCc2ccc3[nH]cnc3c2)cc1 [Comp 1252, N-(1H-1,3-benzodiazol-5-ylmethyl)-2-(4-fluorophenyl)pyridin-3-amine] |
| 0.12 µM | 0.27 µM | COc1ccc(-c2ccccc2NCc2ccc3[nH]cnc3c2)cc1OC [Comp 1254, N-[(1H-1,3-benzodiazol-5-yl)methyl]-3′,4′-dimethoxy-[1,1′-biphenyl]-2-amine] |
| 0.1 µM | 0.23 µM | COc1ccc(-c2cccnc2NCc2ccc3[nH]cnc3c2)cc1OC [Comp 1262, N-(1H-1,3-benzodiazol-5-ylmethyl)-3-(3,4-dimethoxyphenyl)pyridin-2-amine] |

Continued, compound first:

| Structure (SMILES) | Ki [1] | Ki [2] |
| --- | --- | --- |
| COc1ccc(-c2ccccc2Nc2ccc(-c3nnc(N)s3)cc2)cc1 [C4, 5-(4-{[2-(4-methoxyphenyl)phenyl]amino}phenyl)-1,3,4-thiadiazol-2-amine] | 1.87 µM | 1.48 µM |
| COc1ccc(-c2cnccc2Nc2ccc(-c3nnc(N)s3)cc2)cc1 [C6, N-[4-(5-amino-1,3,4-thiadiazol-2-yl)phenyl]-3-(4-methoxyphenyl)pyridin-4-amine] | 7.16 µM | 4.22 µM |
| COc1ccc(-c2cnccc2Nc2ccc(-c3nnc(N)s3)cc2)cc1OC [C7, N-[4-(5-amino-1,3,4-thiadiazol-2-yl)phenyl]-3-(3,4-dimethoxyphenyl)pyridin-4-amine] | 54.7 µM | 7.46 µM |
| Nc1nnc(-c2ccc(Nc3ccccc3-c3ccc(Oc4ccccc4)cc3)cc2)s1 [C10, 5-(4-{[2-(4-phenoxyphenyl)phenyl]amino}phenyl)-1,3,4-thiadiazol-2-amine] | 4.37 µM | 2.23 µM |
| CC(C)Oc1ccc(-c2ccccc2Nc2ccc(-c3nnc(N)s3)cc2)cc1 [C12, 5-[4-({2-[4-{propan-2-yloxy)phenyl]phenyl}amino)phenyl]-1,3,4-thiadiazol-2-amine] | 1.51 µM | 3.27 µM |
| COc1ccc(-c2ccccc2NCCSc2nnc(N)s2)cc1OC [Comp 178, 5-{[2-({3′,4′-dimethoxy-[1,1′-biphenyl]-2-yl}amino)ethyl]sulfanyl}-1,3,4-thiadiazol-2-amine] | 1.1 µM | 0.97 µM |
| COc1ccc(-c2ccccc2NCCCc2nncn2C)cc1OC [Comp 384, 3′,4′-dimethoxy-N-[3-(4-methyl-4H-1,2,4-triazol-3-yl)propyl]-[1,1′-biphenyl]-2-amine] | 0.13 µM | 0.26 µM |
| COc1ccc(-c2ccccc2Nc2ccc(-c3nnc(N)s3)cc2)cc1OC [Comp 561, 5-(4-{[2-(3,4-dimethoxyphenyl)phenyl]amino}phenyl)-1,3,4-thiadiazol-2-amine] | 0.42 µM | 1.09 µM |
| COc1ccc(-c2ccccc2Nc2ccc(-c3nncn3C)cc2)cc1OC [Comp 854, 3′,4′-dimethoxy-N-[4-(4-methyl-4H-1,2,4-triazol-3-yl)phenyl]-[1,1′-biphenyl]-2-amine] | 0.44 µM | 1.48 µM |
| Nc1nnc(C2CCN(c3ccccc3-c3ccc(F)cc3)CC2)s1 [Comp 1075, 5-(1-{4′-fluoro-[1,1′-biphenyl]-2-yl}piperidin-4-yl)-1,3,4-thiadiazol-2-amine] | 0.09 µM | 0.248 µM |
| COc1ccc(NS(=O)(=O)NCCSc2nncn2C)cc1OC [Comp 1332, [(3,4-dimethoxyphenyl)sulfamoyl]({2-[(4-methyl-4H-1,2,4-triazol-3-yl)sulfanyl]ethyl})amine] | 13.6 µM | 11.8 µM |
| COc1ccc(-c2ccccc2Nc2ccc(-c3nncn3C)cc2)cc1 [D3, N-[2-(4-methoxyphenyl)phenyl]-4-(4-methyl-4H-1,2,4-triazol-3-yl)aniline] | 0.99 µM | 1.69 µM |
| COc1ccc(-c2ncccc2Nc2ccc(-c3nncn3C)cc2)cc1 [D4, 2-(4-methoxyphenyl)-N-[4(4-methyl-4H-1,2,4-triazol-3-yl)phenyl]pyridin-3-amine] | 1.7 µM | 3.37 µM |
| Cn1cnnc1-c1ccc(Nc2ccccc2-c2ccc(Oc3ccccc3)cc2)cc1 [D6, 4-(4-methyl-4H-1,2,4-triazol-3-yl)-N-[2-(4-phenoxyphenyl)phenyl]aniline] | 1.33 µM | 1.81 µM |
| COc1ccc(-c2cnccc2Nc2ccc(-c3nncn3C)cc2)cc1OC [D7, 3-(3,4-dimethoxyphenyl)-N-[4-(4-methyl-4H-1,2,4-triazol-3-yl)phenyl]pyridin-4-amine] |  | 10.1 µM |
| Nc1nnc(CCCNS(=O)(=O)c2ccc(F)cc2)s1 [E2, N-[3-(5-amino-1,3,4-thiadiazol-2-yl)propyl]-4-fluorobenzene-1-sulfonamide] | 18.1 µM | 9.38 µM |
| Nc1nnc(SCCNS(=O)(=O)c2ccc(F)cc2)s1 [E3, N-{2-[(5-amino-1,3,4-thiadiazol-2-yl)sulfanyl]ethyl}-4-fluorobenzene-1-sulfonamide] | 19.9 µM | 26.5 µM |
